Laboratory results published in US20190029987A1, “DIMETHYL FUMARATE (DMF) FOR PREVENTION OR TREATMENT OF GOUT, ACNE, DIABETES, VITILIGO AND/OR PYODERMA GANGRENOSUM” (UNIVERSITAT ZURICH, priority 2016, published 2019).

Experiments:
[1] = test system: Monosodium urate (MSU) crystal-induced peritonitis; experiment: MSU crystal-induced peritonitis mouse model (neutrophils in peritoneal lavage); assay type: in vivo; conditions: mice, oral gavage 25 mg/kg in PBS for two days, 6 h post 2 mg MSU crystals, vs control mice, FIG. 3B
Experimental: (§1) Monosodium urate (MSU) crystal-induced peritonitis is a mouse model of inflammation and gout, which is dependent on IL-1, IL-1R1, MyD88 and the NLRP3 inflammasome. […] The inventors chose a different way of administration and supplied mice with SFN or DMF by oral gavage to determine a potential anti-inflammatory activity of the Nrf2 activators in vivo (FIG. 3). […] The inventors analysed the cellular infiltrate in the peritoneum 6 h post injection of MSU crystals.
Mice were challenged with 2 mg of MSU crystals for 6 hours as previously described (Chen et a Olin Invest 2006. 116: 2262-2271).
Mice treated by gavage with (A, B, C) SFN (25 mg/kg) in PBS or (D, E, F) DMF (20 mg/kg) in H2O containing 0.08% methocel and 10% DMSO, vehicle-treated mice served as control. Regime for (A) SFN or (D) DMF treatment. Peritonitis was induced by peritoneal injection of 2 mg MSU crystals, (B, E) After 6 h the number of neutrophils of the peritoneal lavage was determined by flow cytornetry. […] Statistics: Student's t-test. (B, C) n≥3, (E, F) n=7. *P≤0.05; **P≤0.01

[2] = test system: Nrf2 target genes Gstp1, Nqo1 and Srxn1; experiment: Nrf2 target gene expression in liver of treated mice (qRT-PCR); assay type: in vivo, mouse; conditions: oral gavage 25 mg/kg, FIG. 3C
Experimental: as §1
qRT-PCR was performed with the LightCycler 480 SYBR Green Master or the FastStart Universal SYBR Green Master (both Roche, Rotkreuz, Switzerland) using total cellular RNA. Specific primer pairs (Supplementary Table 2) were designed to generate an approximately 150 bp fragment flanking an intron-exon border of the corresponding gene. […]
Mice treated by gavage with (A, B, C) SFN (25 mg/kg) in PBS or (D, E, F) DMF (20 mg/kg) in H2O containing 0.08% methocel and 10% DMSO, vehicle-treated mice served as control. […] Peritonitis was induced by peritoneal injection of 2 mg MSU crystals, (B, E) After 6 h the number of neutrophils of the peritoneal lavage was determined by flow cytornetry. (C, F) At the same time, the liver was isolated and analysed for the expression of the Nrf2 target genes Gstp1, Nqo1 and Srxn1 by qRT-PCR. […]

NLRP3 inflammasome = NLRP3 inflammasome (Mus musculus, UniProt Q8R4B8); conditions: BMDCs from wt and Nrf2 knockout mice, 10 μM 1 h before 5 μM nigericin, 4.5 h, FIG. 5D,E
Chain of NLRP3 inflammasome (Q8R4B8 whole entry): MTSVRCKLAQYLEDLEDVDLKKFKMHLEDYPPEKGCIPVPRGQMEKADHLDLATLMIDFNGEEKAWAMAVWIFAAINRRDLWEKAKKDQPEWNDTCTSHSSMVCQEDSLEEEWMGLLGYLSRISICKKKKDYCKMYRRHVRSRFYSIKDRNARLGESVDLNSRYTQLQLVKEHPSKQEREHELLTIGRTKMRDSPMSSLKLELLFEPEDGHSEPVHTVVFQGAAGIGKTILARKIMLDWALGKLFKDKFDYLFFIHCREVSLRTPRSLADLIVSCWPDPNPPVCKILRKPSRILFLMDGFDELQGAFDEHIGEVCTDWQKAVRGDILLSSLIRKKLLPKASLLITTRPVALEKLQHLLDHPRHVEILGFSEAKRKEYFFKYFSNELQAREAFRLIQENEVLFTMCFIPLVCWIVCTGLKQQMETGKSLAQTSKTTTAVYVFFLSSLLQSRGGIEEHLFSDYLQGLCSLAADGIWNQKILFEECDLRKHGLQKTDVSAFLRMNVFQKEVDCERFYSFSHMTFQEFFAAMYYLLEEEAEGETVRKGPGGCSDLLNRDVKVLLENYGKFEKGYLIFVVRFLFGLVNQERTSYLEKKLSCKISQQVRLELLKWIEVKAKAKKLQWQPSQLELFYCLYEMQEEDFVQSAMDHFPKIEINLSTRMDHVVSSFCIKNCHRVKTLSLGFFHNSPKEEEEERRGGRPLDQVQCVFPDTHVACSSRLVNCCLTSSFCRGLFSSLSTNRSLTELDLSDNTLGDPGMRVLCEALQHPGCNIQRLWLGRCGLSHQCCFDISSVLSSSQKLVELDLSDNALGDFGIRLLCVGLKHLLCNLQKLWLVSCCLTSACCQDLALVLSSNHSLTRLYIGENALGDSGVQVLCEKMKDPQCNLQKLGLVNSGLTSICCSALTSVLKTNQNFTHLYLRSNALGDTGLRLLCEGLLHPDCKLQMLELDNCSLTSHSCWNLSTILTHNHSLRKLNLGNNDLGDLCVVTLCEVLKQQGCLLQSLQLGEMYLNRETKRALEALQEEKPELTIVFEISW
Experimental: To address this possibility, the inventors treated BMDCs from wild-type and Nrf2 knockout mice with SFN or vehicle (FIG. 5 D, E).
(D, E) DCs were differentiated from the bone marrow of wt and Nrf2 knockout mice (n=4), primed overnight with upLPS and treated with the solvent DMSO (ctrl) or SFN (10 μM). After 1 h, BMDCs were treated with 5 μM nigericin and harvested 4.5 h later. (D) Western blots for expression and activation of the indicated proteins and (E) ELISA for quantification of secretion of IL-1p. […] IL-1β secretion was determined by ELISA. […] (A-E) Representative experiments performed at least three times are shown. (E) Error bars represent the mean±SD of a representative experiment performed in triplicates.

ASC = conditions: THP1, 10 μM, nigericin 5 μM for 2.5 h, FIG. 5F
Experimental: In order to analyse, at which level SFN blocks inflammasome activation, the inventors determined the formation of ASC specks in SFN-treated and inflammasome activated THP1 cells (FIG. 5F). Formation of ASC specks is an upstream event of inflammasome activation.
ASC specks were analysed as described (Nara et al., Nat Immunol 2013. 14: 1247-1255),
(F) THP1 cells (3 d differentiated with TPA, overnight primed with LPS) were stimulated with SFN (10 μM) or the solvent DMSO and mock-treated or with nigericin (5 μM) for 2.5 h. Lysates were harvested in Triton buffer and analysed for soluble and insoluble (indicating speck formation) ASC or in DSS-containing buffer for detection of ASC monomers, dimers and oligomers by Western blotting. IL-1β secretion was determined by ELISA.

[3] = biological target: caspase-1 / Rbx1 interaction (Homo sapiens, UniProt P29466); conditions: HPKs, 50 μM, harvested 1 h later, FIG. 5C
Chain of caspase-1 / Rbx1 interaction (P29466 120-404): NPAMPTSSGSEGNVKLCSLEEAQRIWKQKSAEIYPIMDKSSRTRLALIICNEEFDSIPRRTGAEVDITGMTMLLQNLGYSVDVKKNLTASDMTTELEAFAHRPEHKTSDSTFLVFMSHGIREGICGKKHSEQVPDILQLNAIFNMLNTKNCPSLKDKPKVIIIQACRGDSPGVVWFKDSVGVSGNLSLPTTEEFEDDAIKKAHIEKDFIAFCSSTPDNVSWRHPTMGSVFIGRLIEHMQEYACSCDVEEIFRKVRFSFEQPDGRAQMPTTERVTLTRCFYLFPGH
Experimental: To address this point, the inventors performed co-immunoprecipitation (co-IP) experiments with an antibody for caspase-1 and lysates of HPKs. […] In addition, the inventors overexpressed a FLAG-tagged version of caspase-1 in HPKs and precipitated the protease with an ANTI-FLAG M2 Affinity Gel (FIG. 5B).
Co-immunoprecipitation (co-IP) was performed with lysates of HPKs as described (Sollberger et al., J Immunol 2012. 188: 1992-2000). Briefly, HPKs were grown in 10 cm dishes, transfected with siRNA (scr or siRNA targeting Rbx1), and propagated to 80% confluency (3 days), Four dishes were harvested in 150 μl co-IP buffer with complete proteinase inhibitor (Roche, Rotkreuz, Switzerland), respectively. After treatment in a douncer, the lysates were centrifuged (20 min, 17 000×g). The supernatant was diluted 1: 1 with co-IP buffer and incubated with 20 μg antibody (caspase-1 or HA). After centrifugation, 150 μl (50 mg/ml) protein A Sepharose (GE Healthcare, Little Chalfront, UK) was added. After 90 min, the beads were washed four times with co-IP buffer and resuspended in 100 μl 2×loading SDS buffer. Alternatively, co-immunoprecipitation was performed using an ANTI-FLAG® M2 Affinity Gel (Sigma). HPKs were grown in 10 cm dishes and transduced with lentiviral constructs encoding FLAG-tagged caspase-1 or GFP as described above. […]

## C[S+]([O-])CCCCN=C=S (centres unmarked) [SFN, sulforaphane]
[1]
  number of neutrophils in the peritoneum: significantly reduced
[2]
  expression of Nrf2 target genes in the liver: increased mRNA expression
NLRP3 inflammasome
  secretion of IL-1β: completely abolished secretion of the cytokine independently of Nrf2 expression
ASC
  ASC speck formation / oligomerization: prevented oligomerization of the adaptor protein
[3]
  interaction between caspase-1 and Rbx1 (co-IP): did not prevent the interaction between caspase-1 and Rbx1
